Reference: US11981658B2, “Substituted aminopyridine compounds as EGFR inhibitors” (YUHAN CORPORATION, priority 2021, dated 2024)
Like-named read-outs stand apart in the source and are kept apart here.

Tests used:
EGFR L858R/C797S = EGFR L858R/C797S (Homo sapiens, UniProt P00533, C797S/L858R); assay: Biochemical EGFR kinase inhibition assay (Lance Ultra TR-FRET), double mutant L858R/C797S
In short: (§1)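 Enzyme reactions lasted 1 hour at room temperature with test compounds between 0.003 and 10 μM, followed by 10 mM EDTA quench.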

EGFR Del19/T790M/C797S = EGFR Del19/T790M/C797S (Homo sapiens, UniProt P00533, C797S/DEL746-750/T790M); assay: Biochemical EGFR kinase inhibition assay (Lance Ultra TR-FRET), triple mutant del19/T790M/C797S
EGFR Del19/T790M/C797S, sequence (P00533 with tags, fused parts or gaps DEL746-750/T790M/C797S): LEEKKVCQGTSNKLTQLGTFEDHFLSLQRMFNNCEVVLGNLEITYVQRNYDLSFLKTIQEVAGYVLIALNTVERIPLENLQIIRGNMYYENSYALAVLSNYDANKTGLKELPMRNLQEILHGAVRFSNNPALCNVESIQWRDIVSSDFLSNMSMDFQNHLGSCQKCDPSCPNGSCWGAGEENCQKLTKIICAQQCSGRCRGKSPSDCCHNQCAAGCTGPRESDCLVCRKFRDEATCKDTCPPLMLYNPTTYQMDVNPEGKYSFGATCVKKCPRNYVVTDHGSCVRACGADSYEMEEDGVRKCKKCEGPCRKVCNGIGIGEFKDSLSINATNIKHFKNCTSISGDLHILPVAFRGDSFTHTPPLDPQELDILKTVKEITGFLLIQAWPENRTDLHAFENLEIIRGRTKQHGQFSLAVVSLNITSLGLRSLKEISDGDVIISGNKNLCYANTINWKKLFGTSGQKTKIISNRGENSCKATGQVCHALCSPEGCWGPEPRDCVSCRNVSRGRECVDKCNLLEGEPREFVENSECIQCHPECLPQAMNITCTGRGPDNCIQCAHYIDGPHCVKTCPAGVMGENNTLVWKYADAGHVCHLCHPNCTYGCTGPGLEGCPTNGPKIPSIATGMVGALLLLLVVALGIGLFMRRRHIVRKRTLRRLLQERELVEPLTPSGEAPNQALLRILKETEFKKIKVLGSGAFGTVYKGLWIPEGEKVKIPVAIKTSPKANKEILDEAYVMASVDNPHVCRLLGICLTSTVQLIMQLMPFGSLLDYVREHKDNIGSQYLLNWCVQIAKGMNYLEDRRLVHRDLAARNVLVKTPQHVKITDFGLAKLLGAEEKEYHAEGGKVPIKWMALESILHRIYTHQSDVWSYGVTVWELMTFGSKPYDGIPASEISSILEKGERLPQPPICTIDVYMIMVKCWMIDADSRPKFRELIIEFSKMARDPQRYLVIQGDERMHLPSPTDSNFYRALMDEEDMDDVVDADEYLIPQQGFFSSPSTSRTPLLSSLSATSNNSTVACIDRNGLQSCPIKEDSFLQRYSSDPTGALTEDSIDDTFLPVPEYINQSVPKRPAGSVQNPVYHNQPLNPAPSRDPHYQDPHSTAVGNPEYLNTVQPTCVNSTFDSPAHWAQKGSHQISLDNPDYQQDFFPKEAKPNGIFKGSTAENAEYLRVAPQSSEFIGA
In short: as §1

EGFR Del19/C797S = EGFR Del19/C797S (Homo sapiens, UniProt P00533, C797S/DEL746-750); assay: Biochemical EGFR kinase inhibition assay (Lance Ultra TR-FRET), double mutant del19/C797S
EGFR Del19/C797S, sequence (P00533 with tags, fused parts or gaps DEL746-750/C797S): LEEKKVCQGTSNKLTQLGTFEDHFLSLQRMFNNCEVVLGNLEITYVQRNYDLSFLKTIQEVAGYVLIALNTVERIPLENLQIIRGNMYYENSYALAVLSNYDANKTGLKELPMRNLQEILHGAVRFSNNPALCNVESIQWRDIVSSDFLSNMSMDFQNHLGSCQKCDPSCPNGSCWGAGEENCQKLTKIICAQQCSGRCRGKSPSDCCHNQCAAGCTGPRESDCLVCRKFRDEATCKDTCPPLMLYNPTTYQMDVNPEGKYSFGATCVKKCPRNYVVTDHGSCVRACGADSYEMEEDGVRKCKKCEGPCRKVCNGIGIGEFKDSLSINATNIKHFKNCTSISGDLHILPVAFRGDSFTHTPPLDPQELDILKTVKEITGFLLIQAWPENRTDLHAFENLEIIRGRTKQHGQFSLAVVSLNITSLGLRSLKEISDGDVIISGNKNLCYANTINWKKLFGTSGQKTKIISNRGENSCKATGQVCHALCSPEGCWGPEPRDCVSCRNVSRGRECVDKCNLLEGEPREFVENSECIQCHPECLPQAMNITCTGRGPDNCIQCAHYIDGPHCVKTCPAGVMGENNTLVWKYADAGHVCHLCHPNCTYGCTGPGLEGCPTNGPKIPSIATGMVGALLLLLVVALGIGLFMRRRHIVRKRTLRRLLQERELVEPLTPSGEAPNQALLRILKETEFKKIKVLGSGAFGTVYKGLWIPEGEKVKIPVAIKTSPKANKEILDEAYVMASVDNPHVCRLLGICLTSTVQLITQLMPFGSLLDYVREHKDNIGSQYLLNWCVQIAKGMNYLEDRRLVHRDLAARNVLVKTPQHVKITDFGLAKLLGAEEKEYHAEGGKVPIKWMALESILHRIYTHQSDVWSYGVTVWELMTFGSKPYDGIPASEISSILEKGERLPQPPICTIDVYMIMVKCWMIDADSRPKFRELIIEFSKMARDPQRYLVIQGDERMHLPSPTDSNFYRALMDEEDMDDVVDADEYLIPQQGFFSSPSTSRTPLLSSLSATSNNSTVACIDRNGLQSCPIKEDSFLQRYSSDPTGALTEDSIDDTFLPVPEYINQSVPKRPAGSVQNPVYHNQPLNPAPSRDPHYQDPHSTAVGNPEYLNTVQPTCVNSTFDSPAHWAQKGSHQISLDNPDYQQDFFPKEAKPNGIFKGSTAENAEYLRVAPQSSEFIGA
In short: as §1

EGFR wildtype (WT) = EGFR wildtype (WT) (Homo sapiens, UniProt P00533); assay: Biochemical EGFR kinase inhibition assay (Lance Ultra TR-FRET), wildtype
EGFR wildtype (WT), sequence (P00533 25-1210): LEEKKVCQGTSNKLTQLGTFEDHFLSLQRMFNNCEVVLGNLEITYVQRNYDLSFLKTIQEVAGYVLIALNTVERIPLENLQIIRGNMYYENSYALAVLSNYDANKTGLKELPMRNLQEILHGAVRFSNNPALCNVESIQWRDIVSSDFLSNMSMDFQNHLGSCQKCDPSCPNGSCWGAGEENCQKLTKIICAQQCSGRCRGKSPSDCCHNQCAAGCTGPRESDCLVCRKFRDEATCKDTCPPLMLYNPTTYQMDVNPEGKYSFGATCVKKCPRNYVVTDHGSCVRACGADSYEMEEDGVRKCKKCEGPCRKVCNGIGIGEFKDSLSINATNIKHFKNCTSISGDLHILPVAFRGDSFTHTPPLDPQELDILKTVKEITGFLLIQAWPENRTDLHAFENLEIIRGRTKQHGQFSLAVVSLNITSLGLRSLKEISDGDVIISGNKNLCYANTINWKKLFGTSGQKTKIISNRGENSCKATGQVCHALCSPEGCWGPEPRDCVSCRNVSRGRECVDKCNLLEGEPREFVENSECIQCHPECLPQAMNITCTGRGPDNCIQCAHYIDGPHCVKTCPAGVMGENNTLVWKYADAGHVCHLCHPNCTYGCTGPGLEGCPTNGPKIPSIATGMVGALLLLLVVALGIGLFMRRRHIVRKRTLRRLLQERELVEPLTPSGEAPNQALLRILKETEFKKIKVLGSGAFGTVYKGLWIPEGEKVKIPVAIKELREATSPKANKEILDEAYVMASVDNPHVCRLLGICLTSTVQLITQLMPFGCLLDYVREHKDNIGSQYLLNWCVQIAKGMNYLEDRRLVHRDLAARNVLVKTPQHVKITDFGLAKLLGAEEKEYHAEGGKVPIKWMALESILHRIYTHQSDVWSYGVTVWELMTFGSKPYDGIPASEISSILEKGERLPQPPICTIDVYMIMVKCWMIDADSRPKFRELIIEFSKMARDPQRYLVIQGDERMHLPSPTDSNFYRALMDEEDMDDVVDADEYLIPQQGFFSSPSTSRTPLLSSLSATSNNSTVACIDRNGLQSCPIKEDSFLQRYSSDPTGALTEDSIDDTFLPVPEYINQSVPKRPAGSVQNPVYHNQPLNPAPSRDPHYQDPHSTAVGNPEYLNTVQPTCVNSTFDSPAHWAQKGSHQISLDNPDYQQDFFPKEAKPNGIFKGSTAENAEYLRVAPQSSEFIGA
In short: as §1

EGFR L858R/T790M/C797S = EGFR L858R/T790M/C797S (Homo sapiens, UniProt P00533, C797S/L858R/T790M); assay: Biochemical EGFR kinase inhibition assay (Lance Ultra TR-FRET), triple mutant L858R/T790M/C797S
In short: as §1

[1] = ATP at Km, read-out: IC50 L858R/C797S (nM), Km ATP
[2] = IC50 L858R/C797S (nM), 100 μM ATP
[3] = ATP at Km, read-out: IC50 Del19/T790M/C797S (nM), Km ATP
[4] = IC50 Del19/T790M/C797S (nM), 100 μM ATP
[5] = ATP at Km, read-out: IC50 Del19/C797S (nM), Km ATP
[6] = IC50 Del19/C797S (nM), 100 μM ATP
[7] = ATP at Km, read-out: IC50 WT (nM), Km ATP
[8] = ATP at Km, read-out: IC50 L858R/T790M/C797S (nM), Km ATP
[9] = IC50 L858R/T790M/C797S (nM), 100 μM ATP

EGFR L858R/C797S, sequence (P00533 25-1210 C797S/L858R): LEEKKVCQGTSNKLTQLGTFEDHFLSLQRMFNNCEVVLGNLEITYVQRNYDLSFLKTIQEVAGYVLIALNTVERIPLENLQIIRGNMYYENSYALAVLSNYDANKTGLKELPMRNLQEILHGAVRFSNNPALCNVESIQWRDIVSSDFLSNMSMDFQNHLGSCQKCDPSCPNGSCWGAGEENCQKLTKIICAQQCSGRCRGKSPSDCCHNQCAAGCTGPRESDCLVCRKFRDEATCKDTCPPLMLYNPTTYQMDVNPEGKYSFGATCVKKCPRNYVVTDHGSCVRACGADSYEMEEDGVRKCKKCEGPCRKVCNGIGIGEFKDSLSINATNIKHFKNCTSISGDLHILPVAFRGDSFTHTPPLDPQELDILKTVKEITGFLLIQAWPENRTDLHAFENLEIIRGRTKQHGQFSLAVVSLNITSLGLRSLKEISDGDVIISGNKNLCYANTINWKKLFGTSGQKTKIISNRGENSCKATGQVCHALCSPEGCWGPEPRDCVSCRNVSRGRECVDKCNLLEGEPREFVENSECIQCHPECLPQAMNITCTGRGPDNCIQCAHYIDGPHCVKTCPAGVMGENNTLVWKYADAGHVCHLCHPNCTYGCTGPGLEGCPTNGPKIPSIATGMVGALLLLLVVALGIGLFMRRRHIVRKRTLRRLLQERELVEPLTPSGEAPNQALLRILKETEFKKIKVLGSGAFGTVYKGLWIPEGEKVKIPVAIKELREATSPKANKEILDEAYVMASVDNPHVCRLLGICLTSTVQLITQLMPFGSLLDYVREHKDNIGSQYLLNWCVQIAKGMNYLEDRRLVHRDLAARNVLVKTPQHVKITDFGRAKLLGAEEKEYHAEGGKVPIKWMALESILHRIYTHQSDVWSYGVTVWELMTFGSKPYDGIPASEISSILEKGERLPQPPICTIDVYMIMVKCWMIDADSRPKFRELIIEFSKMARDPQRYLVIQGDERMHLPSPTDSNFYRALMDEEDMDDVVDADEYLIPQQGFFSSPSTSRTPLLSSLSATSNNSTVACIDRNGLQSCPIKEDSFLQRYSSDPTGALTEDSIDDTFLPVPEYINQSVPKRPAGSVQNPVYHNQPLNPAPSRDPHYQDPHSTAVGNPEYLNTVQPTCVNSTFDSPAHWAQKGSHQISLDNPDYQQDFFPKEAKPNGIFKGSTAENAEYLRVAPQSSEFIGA

SMILES | IC50 (EGFR L858R/C797S; [1]) [nM] | IC50 (EGFR L858R/C797S; [2]) [nM] | IC50 (EGFR Del19/T790M/C797S; [3]) [nM] | IC50 (EGFR Del19/T790M/C797S; [4]) [nM] | IC50 (EGFR Del19/C797S; [5]) [nM] | IC50 (EGFR Del19/C797S; [6]) [nM] | IC50 (EGFR wildtype (WT); [7]) [nM] | IC50 (EGFR wildtype (WT); IC50 WT (nM), 100 μM ATP) [nM] | IC50 (EGFR L858R/T790M/C797S; [8]) [nM] | IC50 (EGFR L858R/T790M/C797S; [9]) [nM] | IC50 (EGFR L858R/C797S; read-out: IC50 L858R/C797S (nM), 100 μM ATP) [nM] | IC50 (EGFR Del19/T790M/C797S; read-out: IC50 Del19/T790M/C797S (nM), 100 μM ATP) [nM] | IC50 (EGFR Del19/C797S; read-out: IC50 Del19/C797S (nM), 100 μM ATP) [nM] | IC50 (EGFR wildtype (WT); read-out: IC50 WT (nM), 100 μM ATP) [nM] | IC50 (EGFR L858R/T790M/C797S; read-out: IC50 L858R/T790M/C797S (nM), 100 μM ATP) [nM]
O=S(=O)(C1CC1)n1cc(-c2nccc(Nc3cc(N[C@H]4CCC[C@H](O)C4)c(C#Cc4ccc(CN5CCOCC5)cc4)cn3)n2)cn1 [Example 161, (1 S,3S)-3-((2-((2-(1-(Cyclopropylsulfonyl)-1H-pyrazol-4-yl)pyrimidin-4-yl)amino)-5-((4-(morpholinomethyl)phenyl)ethynyl)pyridin-4-yl)amino)cyclohexan-1-ol] | 21.6 | 547 | 5.5 | 8.8 | 25.5 | 38.2 | 650 | > 10000 | 3.2 | 10.6 | – | – | – | – | –
CC(C)(O)[C@H]1CC[C@@H](Nc2cc(Nc3ccnc(-c4cnn(S(=O)(=O)C5CC5)c4)n3)ncc2C#Cc2ccc(CN3CCOCC3)cc2)CC1 [Example 162, 2-((1s,4s)-4-((2-((2-(1-(Cyclopropylsulfonyl)-1H-pyrazol-4-yl)pyrimidin-4-yl)amino)-5-((4-(morpholinomethyl)phenyl)ethynyl)pyridin-4-yl)amino)cyclohexyl)propan-2-ol] | 39.9 | 619 | 27.6 | 22.9 | 44.8 | 58.4 | 540 | > 10000 | 12.2 | 26.3 | – | – | – | – | –
CN1CCN(Cc2ccc(C#Cc3cnc(Nc4ccnc(-c5cnn(S(=O)(=O)C6CC6)c5)n4)cc3N3CCC(C)(CO)CC3)cc2)CC1 [Example 164, (1-(2-((2-(1-(Cyclopropylsulfonyl)-1H-pyrazol-4-yl)pyrimidin-4-yl)amino)-5-((4-((4-methylpiperazin-1-yl)methyl)phenyl)ethynyl)pyridin-4-yl)-4-methylpiperidin-4-yl)methanol] | 0.6 | 2.2 | 0.7 | 0.6 | 0.9 | 1.6 | 1.5 | 236 | 0.2 | 0.5 | – | – | – | – | –
C[C@]1(O)CC[C@@H](Nc2cc(Nc3ccnc(-c4cnn(S(=O)(=O)C5CC5)c4)n3)ncc2C#CCN2CCOCC2)CC1 [Example 166, (1s,4s)-4-((2-((2-(1-(Cyclopropylsulfonyl)-1H-pyrazol-4-yl)pyrimidin-4-yl)amino)-5-(3-morpholinoprop-1-yn-1-yl)pyridin-4-yl)amino)-1-methylcyclohexan-1-ol] | 21.9 | – | 1.4 | – | 66.5 | – | 411 | – | 0.9 | – | 194 | 1.9 | 51.1 | > 10000 | 3.8
Cn1cnc(C#Cc2cnc(Nc3ccnc(-c4cnn(S(=O)(=O)C5CC5)c4)n3)cc2N[C@H]2CC[C@@H](O)CC2)n1 [Example 167, (1s,4s)-4-((2-((2-(1-(Cyclopropylsulfonyl)-1H-pyrazol-4-yl)pyrimidin-4-yl)amino)-5-((1-methyl-1,2,4-triazol-3-yl)ethynyl)pyridin-4-yl)amino)cyclohexan-1-ol] | 24 | 532 | 3.7 | 3.4 | 81.8 | 88.8 | 279 | > 10000 | 3.5 | 15.4 | – | – | – | – | –
CCc1cnc(C#Cc2cnc(Nc3ccnc(-c4cnn(S(=O)(=O)C5CC5)c4)n3)cc2N[C@@H]2CCC[C@H](O)C2)s1 [Example 168, (1S,3R)-3-((2-((2-(1-(Cyclopropylsulfonyl)-1H-pyrazol-4-yl)pyrimidin-4-yl)amino)-5-((5-ethylthiazol-2-yl)ethynyl)pyridin-4-yl)amino)cyclohexan-1-ol] | 784 | 8370 | 11 | 11.8 | 67.9 | 391 | 6250 | > 10000 | 9.1 | 71.2 | – | – | – | – | –
Nc1cccc(C#Cc2cnc(Nc3ccnc(-c4cnn(S(=O)(=O)C5CC5)c4)n3)cc2N[C@@H]2CCC[C@H](O)C2)c1 [Example 169, (1 S,3R)-3-((5-((3-Aminophenyl)ethynyl)-2-((2-(1-(cyclopropylsulfonyl)-1H-pyrazol-4-yl)pyrimidin-4-yl)amino)pyridin-4-yl)amino)cyclohexan-1-ol] | 30.6 | 391 | 7.1 | 3.1 | 4.7 | 10.5 | 238 | > 10000 | 2.6 | 6.8 | – | – | – | – | –
